Experiment [1] concerns the target T1, High affinity choline transporter 1 (Homo sapiens, UniProt Q9GZV3).
T1 sequence (Q9GZV3 whole entry): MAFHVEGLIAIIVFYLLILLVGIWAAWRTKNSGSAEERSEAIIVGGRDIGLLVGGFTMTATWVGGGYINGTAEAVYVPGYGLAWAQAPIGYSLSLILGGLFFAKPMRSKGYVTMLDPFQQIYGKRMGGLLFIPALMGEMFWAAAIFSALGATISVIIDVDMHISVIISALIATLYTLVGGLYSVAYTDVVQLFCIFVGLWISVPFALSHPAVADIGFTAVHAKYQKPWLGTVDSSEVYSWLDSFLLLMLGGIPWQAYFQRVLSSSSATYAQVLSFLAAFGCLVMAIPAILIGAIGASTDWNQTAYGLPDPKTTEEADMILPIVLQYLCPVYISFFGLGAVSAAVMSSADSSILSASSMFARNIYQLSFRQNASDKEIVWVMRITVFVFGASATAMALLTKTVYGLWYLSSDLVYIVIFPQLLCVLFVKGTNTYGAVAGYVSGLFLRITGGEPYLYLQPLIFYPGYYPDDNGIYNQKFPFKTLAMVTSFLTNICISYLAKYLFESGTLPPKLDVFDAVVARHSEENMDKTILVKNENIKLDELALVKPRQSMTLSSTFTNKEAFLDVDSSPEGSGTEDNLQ
As to the kind of experiment: CHT inhibitors, dose response, cell-based, 5-point CRC, membrane potential dye (AID 504840). The class given is functional.

The target of experiment [2] is T2, Corticotropin-releasing factor receptor 2/Corticotropin-releasing factor-binding protein (Homo sapiens, UniProt P24387+Q13324).
T2 sequence (Q13324 whole entry): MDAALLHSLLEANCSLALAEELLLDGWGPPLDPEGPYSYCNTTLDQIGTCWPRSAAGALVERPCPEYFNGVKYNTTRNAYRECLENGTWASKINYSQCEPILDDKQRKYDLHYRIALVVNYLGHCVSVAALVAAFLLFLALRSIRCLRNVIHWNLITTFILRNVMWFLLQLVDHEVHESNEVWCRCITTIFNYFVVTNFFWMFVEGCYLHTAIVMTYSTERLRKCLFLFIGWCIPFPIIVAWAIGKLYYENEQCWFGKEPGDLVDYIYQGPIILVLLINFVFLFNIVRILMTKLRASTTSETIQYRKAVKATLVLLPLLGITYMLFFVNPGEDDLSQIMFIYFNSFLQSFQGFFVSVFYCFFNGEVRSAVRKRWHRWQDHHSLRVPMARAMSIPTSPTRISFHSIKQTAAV
T2 sequence (P24387 whole entry): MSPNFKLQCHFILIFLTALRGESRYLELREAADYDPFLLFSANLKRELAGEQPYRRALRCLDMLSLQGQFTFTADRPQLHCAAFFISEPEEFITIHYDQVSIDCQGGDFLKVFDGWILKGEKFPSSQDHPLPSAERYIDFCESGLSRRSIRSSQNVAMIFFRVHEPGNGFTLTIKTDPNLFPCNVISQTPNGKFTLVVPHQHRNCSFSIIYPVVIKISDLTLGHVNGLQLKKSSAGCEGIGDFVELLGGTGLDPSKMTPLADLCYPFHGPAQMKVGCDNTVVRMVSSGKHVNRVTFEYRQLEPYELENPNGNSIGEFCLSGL
As to the kind of experiment: activators of CRF receptor 2 with binding protein – uHTS hits, confirmation (AID 602473). Format: functional. To be noted: read-out: EC50_Mean.

Experiment [3] has as its target Genome polyprotein (dengue virus type 2, UniProt P29990). Description: Dengue-2 NS5 methyltransferase inhibitors, primary screen, biochemical, confirmation dose response (AID 588689). The class given is functional.
For experiment [4], the system named is Vero. As to the kind of experiment: Vero cell cytotoxicity, cytotoxicity control for flavivirus capping enzyme inhibitors (AID 588742). The class given is functional. Particulars: Chlorocebus sabaeus.
Experiment [5] concerns the target Beta-2 adrenergic receptor (Homo sapiens, UniProt P07550). As to the kind of experiment: beta2AR agonists driving receptor internalization, dose response, cell-based, FAP fluorogen, flow cytometry, cherry pick 1 (AID 588763). The class given is functional.
In experiment [6] the target is Cytochrome P450 2D6 (Homo sapiens, UniProt P10635).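 Further: CYP2D6 member of a cytochrome P450 panel assay.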
Experiment [7] deals with Voltage-gated inwardly rectifying potassium channel KCNH2 (Homo sapiens, UniProt Q12809). To be noted: Potency.
In experiment [8] the target is Cytochrome P450 3A4 (Homo sapiens, UniProt P08684).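 Further: CYP3A4 tested as one member of a cytochrome P450 panel screen.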
For experiment [9], the system named is HEK293. As to the kind of experiment: cells. Particulars: Homo sapiens.
The target of experiment [10] is T3, Zinc finger protein mex-5 (Caenorhabditis elegans, UniProt Q9XUB2).
T3 sequence (Q9XUB2 whole entry): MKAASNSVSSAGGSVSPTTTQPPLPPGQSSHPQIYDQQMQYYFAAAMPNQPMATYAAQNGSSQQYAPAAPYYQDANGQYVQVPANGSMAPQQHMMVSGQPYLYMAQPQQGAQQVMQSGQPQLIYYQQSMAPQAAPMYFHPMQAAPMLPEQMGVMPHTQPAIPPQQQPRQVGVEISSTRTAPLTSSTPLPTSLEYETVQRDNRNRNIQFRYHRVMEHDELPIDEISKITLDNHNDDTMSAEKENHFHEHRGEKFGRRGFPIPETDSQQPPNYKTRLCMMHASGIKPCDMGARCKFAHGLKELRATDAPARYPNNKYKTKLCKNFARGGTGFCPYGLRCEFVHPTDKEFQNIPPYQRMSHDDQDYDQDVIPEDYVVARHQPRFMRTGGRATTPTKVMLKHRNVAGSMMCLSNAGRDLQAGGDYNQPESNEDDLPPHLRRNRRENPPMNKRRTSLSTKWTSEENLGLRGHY
As to the kind of experiment: MEX-5/TCR-2 RNA interaction inhibitors, dose response, biochemical, C. elegans, fluorescence polarization (AID 1960).

The target in experiment [11] is T4, RNA-binding protein pos-1 (Caenorhabditis elegans, UniProt G5EF15).
T4 sequence (G5EF15 whole entry): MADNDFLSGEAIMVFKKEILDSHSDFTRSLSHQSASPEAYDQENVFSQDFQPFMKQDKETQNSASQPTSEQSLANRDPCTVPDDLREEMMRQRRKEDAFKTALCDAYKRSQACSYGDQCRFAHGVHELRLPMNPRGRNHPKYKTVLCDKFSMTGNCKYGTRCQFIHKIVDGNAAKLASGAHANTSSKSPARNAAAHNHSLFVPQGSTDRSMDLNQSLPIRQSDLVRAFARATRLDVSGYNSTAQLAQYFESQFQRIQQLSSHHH
Description: inhibitors of POS-1/mex-3 RNA binding, dose response, biochemical, fluorescence polarization (AID 1964).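 Further: purified POS-1 fused to maltose binding protein made in E. coli; potency of compounds blocking POS-1 binding to fluorescent RNA.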

In experiment [12] the test system is HEK293. Description: cells. To be noted: Homo sapiens. The source holds these as a separate data set.
Experiment [13] has as its system CHO. Description: cytotoxicity in TLR9-MyD88 CHO cells, dose response, cytotoxicity control for TLR9-MyD88 binding inhibitor project, cell-based, luminescence (AID 588339).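 Further: CHO cells stably coexpressing TLR9 and MyD88 fusions from primary screen; compound exposure lasted 48 hours before viability readout.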 The class given is functional, hamster. To be noted: Cricetulus griseus.
Experiment [14] concerns the target T5, Carboxy-terminal domain RNA polymerase II polypeptide A small phosphatase 1 (Homo sapiens, UniProt Q9GZU7).
T5 sequence (Q9GZU7 whole entry): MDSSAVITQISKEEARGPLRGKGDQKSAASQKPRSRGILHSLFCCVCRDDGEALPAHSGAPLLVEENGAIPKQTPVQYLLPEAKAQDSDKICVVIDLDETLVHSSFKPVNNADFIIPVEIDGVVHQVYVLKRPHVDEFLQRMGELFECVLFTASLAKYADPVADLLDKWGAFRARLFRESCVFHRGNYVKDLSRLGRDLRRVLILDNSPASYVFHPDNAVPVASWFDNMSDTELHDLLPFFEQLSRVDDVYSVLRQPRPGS
As to the kind of experiment: inhibitors of CTDSP1, concentration-response testing, biochemical assay, absorbance-based, actives from ultra-high-throughput screening (AID 540297). The class given is functional.

The target of experiment [15] is T6, Cytochrome P450 1A2 (Homo sapiens, UniProt P05177).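 Further: PubChem cytochrome P450 panel assay, CYP1A2 panel member.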
T6 sequence (P05177 whole entry): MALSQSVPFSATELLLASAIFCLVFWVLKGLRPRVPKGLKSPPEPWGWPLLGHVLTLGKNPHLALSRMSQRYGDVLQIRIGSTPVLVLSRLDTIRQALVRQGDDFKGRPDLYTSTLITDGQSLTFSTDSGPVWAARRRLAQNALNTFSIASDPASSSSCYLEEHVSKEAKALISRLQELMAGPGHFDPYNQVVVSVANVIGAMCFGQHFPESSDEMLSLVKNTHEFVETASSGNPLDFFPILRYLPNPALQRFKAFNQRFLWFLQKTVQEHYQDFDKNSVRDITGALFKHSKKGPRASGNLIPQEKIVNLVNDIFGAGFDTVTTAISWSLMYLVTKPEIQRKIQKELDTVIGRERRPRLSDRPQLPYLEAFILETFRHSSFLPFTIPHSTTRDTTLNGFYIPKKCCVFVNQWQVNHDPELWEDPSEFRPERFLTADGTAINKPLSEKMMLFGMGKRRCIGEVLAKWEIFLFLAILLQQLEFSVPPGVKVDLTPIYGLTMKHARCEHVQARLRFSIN

Experiment [16] deals with Streptococcus sp. 'group A'. Description: growth inhibition of control SK(-) GAS strain, dose response, counter-screen for streptokinase expression inhibitor project, luminescence, kanamycin, BacTiterGlo, confirmation (AID 1900). The class given is functional, organism-based.
The test system of experiment [17] is Streptococcus. Description: Group A Streptococcus viability loss, dose response, counter-screen for streptokinase expression inhibitor project, luminescence, BacTiterGlo (AID 1915).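 Further: potency for reduction of bacterial viability or growth.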 Format: functional, organism-based.

Structures are written as SMILES. The source made the active and inactive calls.

Sequence of Beta-2 adrenergic receptor (P07550 whole entry): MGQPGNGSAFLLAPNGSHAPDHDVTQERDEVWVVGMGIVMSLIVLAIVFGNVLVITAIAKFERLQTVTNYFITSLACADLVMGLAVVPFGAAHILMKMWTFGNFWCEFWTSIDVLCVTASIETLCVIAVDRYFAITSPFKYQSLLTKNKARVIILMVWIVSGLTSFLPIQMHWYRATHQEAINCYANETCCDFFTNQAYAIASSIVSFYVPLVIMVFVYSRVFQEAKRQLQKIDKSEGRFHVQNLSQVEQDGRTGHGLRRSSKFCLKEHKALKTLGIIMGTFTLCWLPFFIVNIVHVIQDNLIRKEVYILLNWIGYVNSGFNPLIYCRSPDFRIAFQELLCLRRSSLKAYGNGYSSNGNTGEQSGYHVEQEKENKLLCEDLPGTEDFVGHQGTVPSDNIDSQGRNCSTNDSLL
Sequence of Genome polyprotein (P29990 2492-3391 limits assumed): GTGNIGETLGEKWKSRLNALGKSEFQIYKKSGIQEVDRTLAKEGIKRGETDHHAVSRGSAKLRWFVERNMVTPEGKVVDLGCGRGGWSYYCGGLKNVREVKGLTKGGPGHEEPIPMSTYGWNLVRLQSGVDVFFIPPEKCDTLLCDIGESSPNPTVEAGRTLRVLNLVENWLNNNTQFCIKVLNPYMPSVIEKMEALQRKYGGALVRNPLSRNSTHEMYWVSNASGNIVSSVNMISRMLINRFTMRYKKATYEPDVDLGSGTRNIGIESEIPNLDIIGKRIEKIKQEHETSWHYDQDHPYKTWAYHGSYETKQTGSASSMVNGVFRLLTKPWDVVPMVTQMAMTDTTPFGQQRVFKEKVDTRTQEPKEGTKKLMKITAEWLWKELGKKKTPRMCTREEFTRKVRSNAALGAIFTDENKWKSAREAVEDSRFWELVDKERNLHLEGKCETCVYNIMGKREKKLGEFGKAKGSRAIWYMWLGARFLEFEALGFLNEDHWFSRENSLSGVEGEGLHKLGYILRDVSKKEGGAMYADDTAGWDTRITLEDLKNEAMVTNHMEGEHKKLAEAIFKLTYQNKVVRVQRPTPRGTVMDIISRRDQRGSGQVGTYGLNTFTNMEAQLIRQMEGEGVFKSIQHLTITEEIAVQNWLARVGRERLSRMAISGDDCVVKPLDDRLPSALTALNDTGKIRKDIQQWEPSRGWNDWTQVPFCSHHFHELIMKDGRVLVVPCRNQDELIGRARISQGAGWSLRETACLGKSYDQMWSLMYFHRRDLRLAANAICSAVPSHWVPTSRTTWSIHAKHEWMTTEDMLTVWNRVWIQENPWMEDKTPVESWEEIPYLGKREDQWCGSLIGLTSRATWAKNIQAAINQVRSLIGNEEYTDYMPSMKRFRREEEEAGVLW
Sequence of Cytochrome P450 2D6 (P10635 whole entry): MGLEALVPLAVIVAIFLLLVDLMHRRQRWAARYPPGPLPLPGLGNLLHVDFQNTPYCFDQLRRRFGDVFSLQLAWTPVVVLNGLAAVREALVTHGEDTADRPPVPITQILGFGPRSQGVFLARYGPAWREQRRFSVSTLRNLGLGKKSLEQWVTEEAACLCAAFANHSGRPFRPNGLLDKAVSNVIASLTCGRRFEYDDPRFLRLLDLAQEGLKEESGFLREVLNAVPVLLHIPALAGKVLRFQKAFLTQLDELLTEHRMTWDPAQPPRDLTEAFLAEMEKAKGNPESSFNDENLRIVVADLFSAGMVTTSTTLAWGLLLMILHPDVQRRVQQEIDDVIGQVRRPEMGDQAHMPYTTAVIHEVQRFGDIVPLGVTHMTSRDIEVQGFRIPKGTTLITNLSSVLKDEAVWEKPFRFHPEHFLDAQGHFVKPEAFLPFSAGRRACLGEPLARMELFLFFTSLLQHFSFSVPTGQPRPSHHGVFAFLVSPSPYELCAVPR
Sequence of Voltage-gated inwardly rectifying potassium channel KCNH2 (Q12809 whole entry): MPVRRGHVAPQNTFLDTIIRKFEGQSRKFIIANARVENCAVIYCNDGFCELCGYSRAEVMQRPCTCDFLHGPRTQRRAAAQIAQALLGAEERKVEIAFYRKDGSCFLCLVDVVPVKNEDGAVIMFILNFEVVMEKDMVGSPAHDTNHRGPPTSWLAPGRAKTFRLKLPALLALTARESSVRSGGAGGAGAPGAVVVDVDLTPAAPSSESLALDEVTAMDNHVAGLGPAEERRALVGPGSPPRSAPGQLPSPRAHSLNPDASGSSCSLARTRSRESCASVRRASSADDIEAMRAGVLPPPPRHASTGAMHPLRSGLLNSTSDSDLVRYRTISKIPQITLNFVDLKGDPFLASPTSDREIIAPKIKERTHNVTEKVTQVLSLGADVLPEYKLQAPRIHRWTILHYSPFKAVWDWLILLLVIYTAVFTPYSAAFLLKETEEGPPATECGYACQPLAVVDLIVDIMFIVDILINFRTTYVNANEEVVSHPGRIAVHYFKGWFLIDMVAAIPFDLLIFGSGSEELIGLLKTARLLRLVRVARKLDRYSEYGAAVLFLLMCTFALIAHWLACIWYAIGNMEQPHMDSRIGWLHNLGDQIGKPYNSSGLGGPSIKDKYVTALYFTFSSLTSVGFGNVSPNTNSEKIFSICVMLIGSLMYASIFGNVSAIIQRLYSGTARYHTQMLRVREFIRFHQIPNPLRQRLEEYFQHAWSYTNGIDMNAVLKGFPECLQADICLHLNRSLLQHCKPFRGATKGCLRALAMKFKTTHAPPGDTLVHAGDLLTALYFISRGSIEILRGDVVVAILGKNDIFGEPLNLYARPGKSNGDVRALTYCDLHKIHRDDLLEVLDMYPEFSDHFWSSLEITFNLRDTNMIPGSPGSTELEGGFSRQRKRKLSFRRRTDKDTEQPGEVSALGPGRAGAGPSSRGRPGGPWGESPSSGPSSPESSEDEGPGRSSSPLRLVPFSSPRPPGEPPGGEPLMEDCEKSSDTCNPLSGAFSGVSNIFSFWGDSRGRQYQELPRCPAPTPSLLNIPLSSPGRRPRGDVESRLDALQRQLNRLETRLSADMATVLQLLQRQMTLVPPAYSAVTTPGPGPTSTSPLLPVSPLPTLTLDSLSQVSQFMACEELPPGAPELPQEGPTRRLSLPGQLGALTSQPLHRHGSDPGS
Sequence of Cytochrome P450 3A4 (P08684 whole entry): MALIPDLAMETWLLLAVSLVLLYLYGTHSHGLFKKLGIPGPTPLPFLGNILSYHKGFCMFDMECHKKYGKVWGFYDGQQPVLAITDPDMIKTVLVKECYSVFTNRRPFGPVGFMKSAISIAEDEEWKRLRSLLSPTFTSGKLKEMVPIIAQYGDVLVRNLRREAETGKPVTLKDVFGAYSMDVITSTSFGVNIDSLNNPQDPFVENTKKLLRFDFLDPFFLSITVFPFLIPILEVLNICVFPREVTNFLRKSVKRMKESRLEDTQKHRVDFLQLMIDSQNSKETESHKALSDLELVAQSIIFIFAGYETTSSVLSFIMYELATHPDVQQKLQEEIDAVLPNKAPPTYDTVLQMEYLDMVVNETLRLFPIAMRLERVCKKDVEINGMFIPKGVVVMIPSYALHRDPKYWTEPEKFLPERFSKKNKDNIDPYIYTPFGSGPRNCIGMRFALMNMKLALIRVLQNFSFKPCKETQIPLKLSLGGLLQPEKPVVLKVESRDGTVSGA

Take `O=C(Nc1cc(S(=O)(=O)N2CCCCC2)ccc1O)c1ccccc1NS(=O)(=O)c1ccc(F)cc1`: the IC50 was 13.2 µM (active) in experiment [1] and 67.9 µM (active) in [3]. The EC50 in experiment [2] is 1.83 µM (active). Besides, the CC50 in [4] was > 40 µM (active).

On to `O=C(c1ccc(OC2CCN(Cc3ccc(C(F)(F)F)cc3)CC2)cc1)N1CCCCC1`, for which the EC50 in experiment [5] is 2.59 µM (active).

With `CC(C)=CCC(C)(C)C1OCCN1C(=O)c1ccccc1` (stereo unspecified), the EC50 in experiment [5] was 3.3 µM (active).

With `Cn1cnc2c(NC3CCCC3)ncnc21`, the figures for the AC50 in experiment [6], in experiment [7] and in experiment [8] were 20 µM (inconclusive), 1.41 µM (inconclusive) and 25.1 µM (inconclusive), respectively.

Take `Nc1ccc2nc(-c3ccccc3)c(-c3ccccc3)nc2c1`: the EC50 in [9] was > 59.6 µM (inactive); in experiment [10], 24.9 µM (active); in experiment [11] it was 23.9 µM (inconclusive); in [12], > 59.6 µM (inactive). In addition, in experiment [13], the IC50 was > 49.7 µM (inactive).

`O=C(Nc1cccc(-c2nc3ncccc3o2)c1)c1sc2cc(Cl)ccc2c1Cl`: the IC50 in experiment [14] is 7.21 µM (active). In experiment [5], the EC50 is 7.22 µM (inactive). Also, the AC50 in experiment [15] is 25.1 µM (inconclusive).

Regarding `O=C(O)CN1C(=O)/C(=C\c2cc(Br)ccc2OCc2ccc(Cl)cc2Cl)SC1=S`, the figures for the EC50 in experiment [16] and in experiment [17] were 1.36 µM (active) and 1.95 µM (active), respectively. For the same compound, in experiment [3], the IC50 was 28.8 µM (active). The CC50 in experiment [4] was > 40 µM (active).

Source of the values: ChEMBL document CHEMBL1201862, “PubChem BioAssay data set” (2004).
